Assay results taken from PMC4267739, “Functional Characterization of Corynebacterium glutamicum Mycothiol S-Conjugate Amidase” (PLoS ONE, 2014).
Converted amounts (≈) assume the structure as drawn.

Key:
[1] = tested on: T1, Corynebacterium glutamicum WT(pXMJ19); test: microbe, parasite or virus in culture; set-up: species or system Corynebacterium glutamicum RES167 (pXMJ19); Broth dilution MIC in LB at 30 °C, serial 2-fold dilution, growth checked after 1 to 2 days; conditions: LB, 30 °C, wild type with empty vector pXMJ19; for MIC: Corynebacterium glutamicum, read-out: MIC (µg ml^−1) / WT(pXMJ19)
T1 construct: RES167 wild type carrying empty vector pXMJ19
Description: Disk diffusion assays were performed for antibiotics, alkylating agents, and oxidative agents according to Rawat et al.. Briefly, cells were grown to the mid-log phase and a lawn of cells was plated onto LB plates. After the paper disks were placed into the plates, various amounts of agents (10 µl) were added to the disk. The disks were allowed to dry and the plates were incubated for 2 to 3 days. For the minimal broth dilution assay, antibiotics were serially diluted (0.5×) in LB medium (1 ml) and cells (A 600 = 1.6) were inoculated. After 1 to 2 days of incubation at 30°C, the tubes were checked for growth. The bacteriostasis growth curve assay was used to determine the sensitivity of C. glutamicum to heavy metal stress. LB-grown strains (50 µl) were transferred to LB broth (5 ml), with and without addition of various concentrations of heavy metals (Cd^2+, Ni^2+, Cr^2+ and Cu^2+) and incubated at 30°C. The cellular growth was monitored turbidimetrically (A 600) after 24 h. All assays were performed in triplicate. First, sensitivity of C. glutamicum strains to Macrolides and β-Lactams was tested. […] These observations indicate that the Mca-dependent detoxification pathway indeed plays a major role in the detoxification of rifamycin S. However, no significant difference was found in the size of growth inhibition zones around erythromycin, lincomycin and spectinomycin (all belong to […]) between WT(pXMJ19), Δmca(pXMJ19) and the complementary strain Δmca(pXMJ19-mca) (Table 3; p>0.05). Similar trend was obtained in the MIC data (Table 4). […] Bacterial strains used in this study are listed in S1 Table. Escherichia coli and C. glutamicum strains were routinely cultured in Luria-Bertani (LB) broth or on LB plates at 37°C and 30°C, respectively. For generation of mutants and maintenance of C. glutamicum, brain heart infusion broth with 0.5 M sorbitol (BHIS) was used. The C. glutamicum RES167 strain was the parent of all derivatives used in this study. In-frame deletions were generated by the method as described previously. Cell growth was monitored by measuring absorbance at 600 nm (A 600). Antibiotics were added at the following concentrations: kanamycin, 50 µg ml^−1 for E. coli and 25 µg ml^−1 for C. glutamicum; nalidixic acid, 40 µg ml^−1 for C. glutamicum; chloramphenicol, 20 µg ml^−1 for E. coli and 10 µg ml^−1 for C. glutamicum.

[2] = tested on: CC(=O)N[C@@H](CSCc1c(C)c(=O)n2c(=O)c(C)c(C)n12)C(=O)N[C@H]1[C@@H](O[C@@H]2[C@H](O)[C@H](O)[C@@H](O)[C@H](O)[C@H]2O)O[C@H](CO)[C@@H](O)[C@@H]1O; test: purified protein; conditions: amidase activity, 10 µM enzyme, 0-10 mM MSmB, 50 mM HEPES pH 7.5, 37°C, Table 6 prints 92.34±1.5 mM and kcat unit min^-1
Description: fluorescamine assay of released amine, Eadie-Hofstee on C. glutamicum Mca (mycothiol S-conjugate amidase; His6-Mca)

Compound	MIC [1]	other results
CN[C@@H]1[C@H](O[C@H]2[C@H](O[C@H]3[C@H](O)[C@@H](O)[C@H](N=C(N)N)[C@@H](O)[C@@H]3N=C(N)N)O[C@@H](C)[C@]2(O)C=O)O[C@@H](CO)[C@H](O)[C@H]1O [Streptomycin]	–	MIC (µg ml^−1) / WT(pXMJ19) ([1]; inhibitor): 1.25 ug/mL
CCC[C@@H]1C[C@@H](C(=O)N[C@@H]([C@H]2O[C@H](SC)[C@H](O)[C@@H](O)[C@H]2O)[C@@H](C)O)N(C)C1 [Lincomycin]	62.5 µg/mL (≈ 154 µM)	–
CO[C@H]1/C=C/O[C@@]2(C)Oc3c(C)c(O)c4c(c3C2=O)C(=O)C=C(NC(=O)/C(C)=C\C=C\[C@H](C)[C@H](O)[C@@H](C)[C@@H](O)[C@@H](C)[C@H](OC(C)=O)[C@@H]1C)C4=O [Rifamycin S]	12.5 µg/mL (≈ 18 µM)	–
CN(C)[C@@H]1C(O)=C(C(N)=O)C(=O)[C@@]2(O)C(O)=C3C(=O)c4c(O)cccc4[C@@](C)(O)[C@H]3C[C@@H]12 [Tetracycline]	3.12 µg/mL (≈ 7.03 µM)	–
C. glutamicum Mca (mycothiol S-conjugate amidase; His6-Mca) (Corynebacterium glutamicum ATCC 13032)	–	Km [2]: 92.30 ± 1.5 mM; kcat [2]: 3.56 ± 0.9 s⁻¹; kcat/Km [2]: 38.5 ± 9.6 M⁻¹ s⁻¹
CC[C@H]1OC(=O)[C@H](C)[C@@H](O[C@H]2C[C@@](C)(OC)[C@@H](O)[C@H](C)O2)[C@H](C)[C@@H](O[C@@H]2O[C@H](C)C[C@H](N(C)C)[C@H]2O)[C@](C)(O)C[C@@H](C)C(=O)[C@H](C)[C@@H](O)[C@]1(C)O [Erythromycin]	25 µg/mL (≈ 34.1 µM)	–
NC[C@@H]1O[C@H](O[C@H]2[C@@H](O)[C@H](O[C@@H]3[C@@H](O)[C@H](N)C[C@H](N)[C@H]3O[C@H]3O[C@H](CN)[C@@H](O)[C@H](O)[C@H]3N)O[C@@H]2CO)[C@H](N)[C@@H](O)[C@@H]1O [Neomycin]	7.5 µg/mL (≈ 12.2 µM)	–
CN[C@@H]1[C@H](O)[C@H](NC)[C@H]2O[C@@]3(O)C(=O)C[C@@H](C)O[C@H]3O[C@@H]2[C@H]1O [Spectinomycin]	128 µg/mL (≈ 385 µM)	–
CC1(C)S[C@@H]2[C@H](NC(=O)Cc3ccccc3)C(=O)N2[C@H]1C(=O)O [Penicillin]	> 350 µg/mL	–
O=C(O)c1cn(C2CC2)c2cc(N3CCNCC3)c(F)cc2c1=O [Ciprofloxacin]	1.56 µg/mL (≈ 4.71 µM)	–
CN[C@H](CC(C)C)C(=O)N[C@H]1C(=O)N[C@@H](CC(N)=O)C(=O)N[C@H]2C(=O)N[C@H]3C(=O)N[C@H](C(=O)N[C@H](C(=O)O)c4cc(O)cc(O)c4-c4cc3ccc4O)[C@H](O)c3ccc(c(Cl)c3)Oc3cc2cc(c3O[C@@H]2O[C@H](CO)[C@@H](O)[C@H](O)[C@H]2O[C@H]2C[C@](C)(N)[C@H](O)[C@H](C)O2)Oc2ccc(cc2Cl)[C@H]1O [Vancomycin]	32 µg/mL (≈ 22.1 µM)	–
